Where two headings read alike, the source gives them in different places.
Key:
HCT116^+/+ = test: Antiproliferative assay (MTS, 72 h) on HCT116 wild type; type: cell-based, human; settings: MTS, 72 h incubation, read-out: Activity IC50 HCT116^+/+
Experimental: (§1) All of the synthesized compounds were tested for their antiproliferative activity against human colon cancer (Table 1). We used both the wild-type and p53-negative cell lines (HCT116^+/+ and HCT116^−/−, respectively). Mutations in the TP53 gene are present in more than 50% of all cancers and often specifically correspond to a difficult therapy, resistance or a bad prognosis[60]–[63]. The active compounds were additionally tested for their cytotoxicity against normal human fibroblasts. We used 5-fluorouracil (5-FLU), doxorubicin (DOX) and CP-31398 as the standards. 5-FLU is one of the first antimetabolites that was dedicated for cancer treatment and is still used for a wide range of cancers including colon carcinoma. Doxorubicin is a DNA topoisomerase II poison with a high intercalating potency, which is able to induce apoptosis through the p53 pathway. Although DOX has been described as being ineffective in some p53 mutants, its level of activity against the p53 null lines is similar. CP-31398, on the other hand, is an experimental drug in the clinical phase and its mechanism of action is through the reactivation some of p53 mutants. Its activity against the p53 null cell lines is greatly diminished and is actually lower than its cytotoxicity.
(§2) The human colon cancer cell line HCT116 wild type was obtained from ATCC and the normal human fibroblast cell lines NHDF were obtained from PromoCell. The human colon cancer cell line HCT116 with a p53 deletion (p53^−/−) was kindly provided by Prof. M. Rusin from the Maria Sklodowska-Curie Memorial Cancer Centre and Institute of Oncology in Gliwice, Poland[89]. The cells were grown as monolayer cultures in Dulbecco’s modified Eagle’s medium with the antibiotic gentamicin (200 μL/100 mL medium) in 75 cm^2 flasks (Nunc). The DMEM for the HCT116 were supplemented with 12% heat-inactivated fetal bovine serum (Sigma-Aldrich, St. Louis, MO, USA) and for NHDF with 15% non-inactivated fetal bovine serum (Sigma Aldrich, St. Louis, MO, USA). The cells were cultured under standard conditions at 37 °C in a humidified atmosphere at 5% CO2.
(§3) The cells were seeded in 96-well plates (Nunc) at a density of 5,000 cells/well (HCT116) and 4,000 cells/well (NHDF) and incubated at 37 °C for 24 h. The assay was performed following a 72 h incubation with varying concentrations of the compounds that were being tested. Then, 20 µL of CellTiter 96® AQueous One Solution-MTS (Promega) was added to each well (with 100 µL DMEM without phenol red) and incubated for 1 h at 37 °C. The optical densities of the samples were analyzed at 490 nm using a Synergy 4 multi-plate reader (BioTek, Winooski, VT, USA). The results are expressed as the percentage of the control and were calculated as the inhibitory concentration (IC50) values (using a GraphPad Prism 7). The IC50 parameter was defined as the compound concentration that was necessary to reduce the proliferation of cells to 50% of the untreated control. Each individual compound was tested in triplicate in a single experiment with each experiment being repeated three or four times.

HCT116^−/− = test: Antiproliferative assay (MTS, 72 h) on HCT116 with p53 deletion; type: cell-based, human; settings: for IC50: MTS, 72 h incubation
Experimental: as §1, §2, §3

NHDF = test: Cytotoxicity (MTS, 72 h) against normal human fibroblasts; type: cell-based; settings: MTS, 72 h incubation
Experimental: as §1, §2, §3

Row | Structure (SMILES) | IC50 (HCT116^+/+) [µM] | IC50 (HCT116^−/−) [µM] | IC50 (NHDF) [µM] | IC50 (HCT116^+/+; Homo sapiens, HCT-116) [µM] | IC50 (HCT116^−/−; Homo sapiens, HCT-116) [µM] | IC50 (NHDF; Homo sapiens, NHDF) [µM] | selectivity towards the p53 null cells (HCT116 p53^−/− vs wild type) (HCT116^−/−)
1 | O=C(Nc1ccccc1Br)c1ccc2ccccc2c1O [6a] | 22.5 ± 3.62 | > 25 | > 25 | – | – | – | –
2 | O=C(Nc1cccc(Cl)c1Cl)c1ccc2ccccc2c1O [5d] | 4.66 ± 0.58 | 8.25 ± 0.64 | > 25 | – | – | – | –
3 | Cc1cccc(C)c1NC(=O)c1ccc2ccccc2c1O [3e] | – | – | – | > 25 | > 25 | – | –
4 | O=C(Nc1cccc(Br)c1)c1ccc2ccccc2c1O [6b] | 9.19 ± 0.98 | 8.73 ± 0.89 | 15.2 ± 2.48 | – | – | – | –
5 | O=c1[nH]cc(F)c(=O)[nH]1 [5-FLU, 5-fluorouracil, reference compound] | – | – | – | 4.42 ± 0.7 | 4.69 ± 0.31 | > 25 | –
6 | O=C(Nc1ccc(Br)cc1Cl)c1ccc2ccccc2c1O [5n] | 2.33 ± 0.95 | 9.79 ± 1.95 | 23.4 ± 0.86 | – | – | – | –
7 | O=C(Nc1c(F)c(F)c(Br)c(F)c1F)c1ccc2ccccc2c1O [4y] | 2.41 ± 0.69 | 5.68 ± 1.37 | 7.87 ± 1.37 | – | – | – | –
8 | O=C(Nc1cc(Cl)c(Cl)c(Cl)c1)c1ccc2ccccc2c1O [5l] | 1.31 ± 0.15 | 2.86 ± 0.33 | 7.01 ± 0.42 | – | – | – | –
9 | O=C(Nc1cc(Cl)ccc1Cl)c1ccc2ccccc2c1O [5f] | 7.45 ± 0.85 | 7.19 ± 1.15 | > 25 | – | – | – | –
10 | O=C(Nc1ccc(C(F)(F)F)cc1[N+](=O)[O-])c1ccc2ccccc2c1O [8d] | > 25 | > 25 | – | – | – | – | –
11 | O=C(Nc1ccc(C(F)(F)F)cc1)c1ccc2ccccc2c1O [7c] | 4.31 ± 0.51 | 1.07 ± 0.26 | 16.6 ± 2.17 | – | – | – | –
12 | O=C(Nc1ccc(Cl)c(Cl)c1)c1ccc2ccccc2c1O [5h] | 5.15 ± 0.5 | 4.74 ± 0.82 | > 25 | – | – | – | not selective
13 | O=C(Nc1ccccc1F)c1ccc2ccccc2c1O [4a] | > 25 | > 25 | – | – | – | – | –
14 | O=C(Nc1ccc(Cl)cc1)c1ccc2ccccc2c1O [5c] | 9.62 ± 0.75 | 9.41 ± 0.78 | > 25 | – | – | – | –
15 | COc1ccc(C(F)(F)F)cc1NC(=O)c1ccc2ccccc2c1O [2i] | – | – | – | > 25 | > 25 | – | –
16 | O=C(Nc1cccc(C(F)(F)F)c1)c1ccc2ccccc2c1O [7b] | 6.25 ± 0.47 | 1.39 ± 0.29 | > 25 | – | – | – | –
17 | O=C(Nc1ccc(Cl)cc1Cl)c1ccc2ccccc2c1O [5e] | 1.95 ± 0.5 | 6.06 ± 1.13 | > 25 | – | – | – | –
18 | O=C(Nc1cccc(Cl)c1)c1ccc2ccccc2c1O [5b] | 4.7 ± 0.4 | 1.78 ± 0.32 | > 25 | – | – | – | –
19 | Cc1cccc(NC(=O)c2ccc3ccccc3c2O)c1 [3b] | > 25 | > 25 | – | – | – | – | –
20 | O=C(Nc1cccc([N+](=O)[O-])c1)c1ccc2ccccc2c1O [8b] | 6.82 ± 1.17 | 3.1 ± 0.63 | > 25 | – | – | – | –
21 | O=C(Nc1c(Br)cccc1Br)c1ccc2ccccc2c1O [6f] | > 25 | > 25 | – | – | – | – | –
22 | O=C(Nc1ccccc1C(F)(F)F)c1ccc2ccccc2c1O [7a] | > 25 | 21.4 ± 1.24 | – | – | – | – | –
23 | O=C(Nc1ccc(Cl)cc1C(F)(F)F)c1ccc2ccccc2c1O [7h] | > 25 | > 25 | – | – | – | – | –
24 | O=C(Nc1ccccc1[N+](=O)[O-])c1ccc2ccccc2c1O [8a] | 23.3 ± 3.77 | > 25 | 22.7 ± 2.71 | – | – | – | –
25 | COc1cc(NC(=O)c2ccc3ccccc3c2O)cc(OC)c1OC [2f] | 6.54 ± 2.42 | 8.78 ± 2.13 | > 25 | – | – | – | –
26 | O=C(Nc1ccc(Br)cc1)c1ccc2ccccc2c1O [6c] | 5.25 ± 0.67 | 11 ± 0.97 | > 25 | – | – | – | –
27 | COc1ccccc1NC(=O)c1ccc2ccccc2c1O [2a] | > 25 | > 25 | – | – | – | – | –

Reference: publication PMC6476888, “Design and synthesis of anticancer 1-hydroxynaphthalene-2-carboxanilides with a p53 independent mechanism of action” (Scientific Reports, 2019)
